# Where a SMILES comes first, the peptide text is derived from it. The star is where a group is joined. C16 diacid = O=C(O)CCCCCCCCCCCCCCC(=O)*
# Experiments:
# [1] = tested on: Female ovariectomised C57Bl6/J mice; experiment: HFD study in ovariectomised mice, body weight and composition, 8 weeks; format: in vivo, mouse
# Procedure: Prior to bilateral ovariectomy surgery and once daily for 48 h following, mice received analgesics through s.c. injection of carprofen (Rimadyl; 5 mg·kg^−1). Anaesthesia was induced in an induction chamber with 5% isoflurane and maintained with 2% isoflurane through a nose cone during the procedure. Proper respiration was ensured with a flow of oxygen through the nose cone and body temperature was maintained at 37°C by placing the mice on a heating pad. Mice were placed in a prone position on a sterile surgery pad and the area of incision was shaved and sterilized with 70% ethanol. Two dorsal‐lateral incisions were made and the ovary and attached fat pad were individually pulled out of the abdominal cavity. The fallopian tubes were ligated and the ovaries were dissected, then the fat pad was carefully placed back in the abdominal cavity. The skin incision was closed using wound clips (Reflex, Alzet, Cupertino, CA, USA). In half of the animals, a microtransponder (Datamars, Lamone, Switzerland) was inserted and animals were placed in an HM‐2 cage with the intention to measure food intake (MBrose, Faaborg, Denmark) and left to recover and acclimatize for a week. The remaining animals were placed back in their home cages to recover for a week. The division of mice into HM‐2 cages and home cages was randomized. Uterine atrophy was confirmed in all mice upon termination of the study, indicating successful ovariectomy.
# A week after ovariectomy, at 10 weeks of age, animals were randomized into groups and placed on a 60 kcal% HFD (HFD, D12492, Research Diets, New Brunswick, NJ, USA) or a control diet (10 kcal% fat, D12450J, Research Diets) for 8 weeks. Group sizes were as follows: Vehicle/control diet, n = 12; mGIPAnt‐1/control diet, n = 12; Vehicle/HFD, n = 11; mGIPAnt‐1/HFD, n = 12. The reduction of animal numbers in group Vehicle/HFD was due to unexpected loss of an animal. Animals received a daily s.c. injection at 4:30 PM with mGIPAnt‐1 (300‐nmol·kg^−1) or vehicle. Body weight and body composition were assessed weekly (LF90II body composition analyzer, Bruker, Billerica, MA, USA). On the final experimental day, animals were anaesthetized with an intraperitoneal injection of 90 mg·kg^−1 ketamine and 10‐mg·kg^−1 xylazine. The microchip was quickly removed from HM‐2 cage animals and a final body composition measurement was performed on all animals. A terminal retro‐orbital blood sample was taken, mice were killed through cervical dislocation and tissues were quickly dissected and weighed.
# mouse GLP‐1 receptor = target: T1, mouse GLP‐1 receptor (Mus musculus, UniProt O35659); experiment: cAMP accumulation, agonism in transfected COS‐7 cells; format: cell-based; settings: increasing concentrations, COS‐7, n = 5
# T1 construct: host or cells: COS-7
# T1 sequence (O35659 22-463): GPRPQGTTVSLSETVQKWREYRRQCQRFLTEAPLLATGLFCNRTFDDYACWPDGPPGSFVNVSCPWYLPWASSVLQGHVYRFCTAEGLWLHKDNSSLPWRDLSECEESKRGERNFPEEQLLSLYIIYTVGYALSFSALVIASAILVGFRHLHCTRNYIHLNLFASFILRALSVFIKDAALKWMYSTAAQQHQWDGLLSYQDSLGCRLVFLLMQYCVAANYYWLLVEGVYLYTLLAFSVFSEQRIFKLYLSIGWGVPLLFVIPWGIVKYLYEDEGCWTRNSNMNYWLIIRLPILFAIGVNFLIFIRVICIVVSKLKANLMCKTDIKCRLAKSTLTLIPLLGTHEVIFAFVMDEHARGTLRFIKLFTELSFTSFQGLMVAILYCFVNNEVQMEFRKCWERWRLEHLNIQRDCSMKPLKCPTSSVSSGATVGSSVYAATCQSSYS
# Procedure: COS‐7 cells were cultured at 10% CO2 and 37°C in Dulbecco's Modified Eagle Medium 1885 supplemented with 10% foetal bovine serum, 2‐mM glutamine, 180‐units ml^−1 penicillin and 45‐g·ml^−1 streptomycin. […] A second set of cells was transiently transfected with either mouse GLP‐1 or GLP‐2 receptor. Following the day after transfection, the cells were seeded in white 96‐well plates with a density of 35.000 cells per well. The next day the assay was initiated by washing the cells with HEPES buffered saline (HBS) followed by an incubation step with HBS and 1‐mM 3‐isobutyl‐1‐methylxanthine for 30 min at 37°C. For agonist studies, the ligands were then added and incubated for an additional 30 min at 37°C. To test for antagonistic properties, the cells were first preincubated for 10 min with the antagonist with subsequent addition of the agonist and incubated for an additional 20 min. The HitHunter® cAMP assay (Eurofins DiscoverX, Fremont, USA) was carried out according to the manufacturer's protocol. Luminescence was measured by PerkinElmer™ Envision 2014 Multilabel Reader.
# COS‐7 cells were transiently transfected with (a) mouse GLP1‐R and (b) mouse GLP‐2 R and assayed for cAMP accumulation. […] Data are shown as mean ± SE from n = 5 independent experiments
smiles,measurement,setting,value
CC[C@H](C)[C@H](NC(=O)[C@H](CO)NC(=O)[C@H](Cc1ccc(O)cc1)NC(=O)[C@H](CC(=O)O)NC(=O)[C@H](CO)NC(=O)[C@@H](NC(=O)[C@H](Cc1ccccc1)NC(=O)[C@@H](NC(=O)CNC(=O)[C@@H](N)CCC(=O)O)[C@@H](C)O)[C@@H](C)CC)C(=O)N[C@@H](C)C(=O)N[C@@H](CCSC)C(=O)N[C@@H](CC(=O)O)C(=O)N[C@@H](CCCCN)C(=O)N[C@H](C(=O)N[C@@H](CCCCNC(=O)CCCCCCCCCCCCCCC(=O)O)C(=O)N[C@@H](CCC(N)=O)C(=O)N[C@@H](CCC(N)=O)C(=O)N[C@@H](CC(=O)O)C(=O)N[C@@H](Cc1ccccc1)C(=O)N[C@H](C(=O)N[C@@H](CC(N)=O)C(=O)N[C@@H](Cc1c[nH]c2ccccc12)C(=O)N[C@@H](CC(C)C)C(=O)N[C@@H](CC(C)C)C(=O)N[C@@H](C)C(=O)N[C@@H](CCC(N)=O)C(=O)N[C@@H](CCCCN)C(=O)NCC(=O)N[C@@H](CCCCN)C(=O)N[C@@H](CCCCN)C(=O)N[C@@H](CC(N)=O)C(=O)N[C@@H](CC(=O)O)C(=O)N[C@@H](Cc1c[nH]c2ccccc12)C(=O)N[C@@H](CCCCN)C(=O)N[C@@H](Cc1c[nH]cn1)C(=O)N[C@@H](CC(N)=O)C(=O)O)C(C)C)[C@@H](C)CC [mGIPAnt‐1] (H-EGTFISDYSIAMDKIK(C16 diacid)QQDFVNWLLAQKGKKNDWKHN-OH),final lean body mass,"[1]; 300 nmol·kg−1 s.c. daily, 8 weeks",not affected
same,"body weight, HFD","[1]; 300 nmol·kg−1 s.c. daily, 8 weeks, 60 kcal% HFD, versus Vehicle/HFD, n = 11–12","body weight in the control, HFD group was significantly higher compared to the mGIPAnt‐1/HFD group"
same,"absolute body weight, control diet","[1]; 300 nmol·kg−1 s.c. daily, 8 weeks, control diet, n = 12",not affected
same,"total body weight gain, overall treatment effect","[1]; 300 nmol·kg−1 s.c. daily, 8 weeks, two‐way ANOVA",reducing total body weight gain
same,"body fat percentage, HFD","[1]; at 6 and 8 weeks, 300 nmol·kg−1 s.c. daily, versus Control/HFD, n = 6",Control/HFD animals significantly increased body fat percentage compared to mGIPAnt‐1/HFD animals
same,BAT weight,[1]; terminal,not affected
same,"eWAT weight, control diet",[1]; terminal,did not affect
same,"iWAT weight, control diet",[1]; terminal,did not affect
same,liver weight,[1]; terminal,not affected
same,"eWAT weight, HFD","[1]; terminal, versus Vehicle/HFD",reduced
same,"iWAT weight, HFD","[1]; terminal, versus Vehicle/HFD",reduced
same,activation of mouse GLP‐1 receptor (cAMP),mouse GLP‐1 receptor,does not induce activation
